ChEMBL document CHEMBL1133347, “Synthesis of NF-kappaB activation inhibitors derived from epoxyquinomicin C” (Bioorg Med Chem Lett, 2000)

Assays:
[1] = species: Mus musculus; experiment: Compound was tested for antiarthritic effects on type-II collagen induced arthritis in DBA1/J mice; inhibited; format: functional, organism-based
[2] = tested on: Jurkat; experiment: Compound was assessed for NF-kB activity using human T cell leukemia Jurkat cells; Less toxic; format: functional, cell-based
[3] = tested on: Jurkat; experiment: Compound was assessed for NF-kB activity using human T cell leukemia Jurkat cells; more toxic; format: functional, cell-based

| Structure (SMILES) | Activity [1] | Activity [2] | Activity [3] |
| --- | --- | --- | --- |
| O=C(NC1=CC(=O)[C@H]2O[C@H]2[C@H]1O)c1ccccc1O | Inhibited | Toxic | – |
| O=C(NC1=CC(O)C2OC2C1=O)c1ccccc1O (stereo not drawn) | – | – | Toxic |
